Laboratory results reported in patent publication US8802597B2, “Herbicidal pyrimidines” (E I du Pont de Nemours and Company, priority 2003, dated 2014).
Where two headings read alike, the source gives them in different places.

How the values were obtained:
Assay in all cases: Test C pre/postemergence
Type in all cases: in vivo
[1] = test system: eastern black nightshade (Solanum ptycanthum); details: Solanum, pre-emergence, Preemergence, read-out: Plant response rating, Nightshade
Outline: (§1)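 Visual injury ratings, 0 (no effect) to 100 (complete control), made 12 to 14 days after treatment by comparison with untreated controls. Greenhouse plants received test chemical in a surfactant-containing non-phytotoxic solvent, either preemergence on planted seeds or postemergence at the 1- to 4-leaf stage.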

[2] = test system: goosegrass (Eleusine indica); details: Eleusine indica; for pest or weed control at 31 g/ha: 31 g ai/ha; for pest or weed control at 62 g/ha: 62 g ai/ha; for pest or weed control at 125 g/ha: 125 g ai/ha; for pest or weed control at 250 g/ha: 250 g ai/ha
Outline: as §1

[3] = test system: common (oilseed) sunflower (Helianthus annuus); details: Helianthus annuus, pre-emergence, Preemergence, read-out: Plant response rating, Sunflower
Outline: as §1

[4] = test system: lambsquarters (Chenopodium album); details: Chenopodium album; for pest or weed control at 31 g/ha: 31 g ai/ha; for pest or weed control at 62 g/ha: 62 g ai/ha; for pest or weed control at 125 g/ha: 125 g ai/ha; for pest or weed control at 250 g/ha: 250 g ai/ha
Outline: as §1

[5] = test system: velvetleaf (Abutilon theophrasti); details: Abutilon theophrasti; for pest or weed control at 31 g/ha: 31 g ai/ha; for pest or weed control at 62 g/ha: 62 g ai/ha; for pest or weed control at 125 g/ha: 125 g ai/ha; for pest or weed control at 250 g/ha: 250 g ai/ha
Outline: as §1

[6] = test system: soybean (Glycine max); details: Glycine max; for plant injury at 31 g/ha: 31 g ai/ha; for plant injury at 62 g/ha: 62 g ai/ha; for plant injury at 125 g/ha: 125 g ai/ha; for plant injury at 250 g/ha: 250 g ai/ha
Outline: as §1

[7] = test system: common ragweed (Ambrosia elatior); details: Ambrosia artemisiifolia, post-emergence, Postemergence
Outline: as §1

[8] = 31 g ai/ha, scale 0 to 100, 0 no effect, 100 complete control
[9] = 62 g ai/ha, scale 0 to 100, 0 no effect, 100 complete control
[10] = post-emergence, Postemergence, scale 0 to 100 (0 no effect, 100 complete control), read-out: Goosegrass plant response rating
[11] = pre-emergence, Preemergence, scale 0 to 100, 0 no effect, 100 complete control, read-out: Plant response rating, Goosegrass
[12] = pre-emergence, Preemergence, scale 0 to 100, read-out: Plant response rating, Goosegrass
[13] = post-emergence, Postemergence, scale 0 to 100 (0 no effect, 100 complete control), read-out: Lambsquarters plant response rating
[14] = pre-emergence, Preemergence, scale 0 to 100, 0 no effect, 100 complete control, read-out: Plant response rating, Lambsquarters
[15] = pre-emergence, Preemergence, scale 0 to 100, read-out: Plant response rating, Lambsquarters
[16] = post-emergence, Postemergence, scale 0 to 100 (0 no effect, 100 complete control), read-out: Velvetleaf plant response rating
[17] = pre-emergence, Preemergence, scale 0 to 100, 0 no effect, 100 complete control, read-out: Plant response rating, Velvetleaf
[18] = pre-emergence, Preemergence, scale 0 to 100, read-out: Plant response rating, Velvetleaf
[19] = post-emergence, Postemergence, scale 0 to 100 (0 no effect, 100 complete control), read-out: Soybean plant response rating
[20] = pre-emergence, Preemergence, scale 0 to 100, 0 no effect, 100 complete control, read-out: Plant response rating, Soybean
[21] = pre-emergence, Preemergence, scale 0 to 100, read-out: Plant response rating, Soybean

## CCOC(=O)c1nc(C2CC2)nc(N)c1F [Compound 30]
[1]; [8]
  pest or weed control at 31 g/ha: 50%
[1]; [9]
  pest or weed control at 62 g/ha: 80%
[1]; 125 g ai/ha, scale 0 to 100
  pest or weed control at 125 g/ha: 100%
[1]; 250 g ai/ha, scale 0 to 100
  pest or weed control at 250 g/ha: 100%
[2]; post-emergence, Postemergence, read-out: Plant response rating (scale of 0 to 100), Goosegrass
  pest or weed control at 31 g/ha: 0%
[2]; [10]
  pest or weed control at 62 g/ha: 0%
  pest or weed control at 125 g/ha: 0%
[2]; post-emergence, Postemergence, scale 0 to 100, read-out: Plant response rating, Goosegrass
  pest or weed control at 250 g/ha: 0%
[2]; [11]
  pest or weed control at 31 g/ha: 0%
  pest or weed control at 62 g/ha: 30%
[2]; [12]
  pest or weed control at 125 g/ha: 35%
  pest or weed control at 250 g/ha: 50%
[3]; [8]
  pest or weed control at 31 g/ha: 20%
[3]; [9]
  pest or weed control at 62 g/ha: 80%
[3]; 125 g ai/ha, scale 0 to 100
  pest or weed control at 125 g/ha: 90%
[3]; 250 g ai/ha, scale 0 to 100
  pest or weed control at 250 g/ha: 90%
[4]; post-emergence, Postemergence, read-out: Plant response rating (scale of 0 to 100), Lambsquarters
  pest or weed control at 31 g/ha: 50%
[4]; [13]
  pest or weed control at 62 g/ha: 60%
  pest or weed control at 125 g/ha: 80%
[4]; post-emergence, Postemergence, scale 0 to 100, read-out: Plant response rating, Lambsquarters
  pest or weed control at 250 g/ha: 90%
[4]; [14]
  pest or weed control at 31 g/ha: 0%
  pest or weed control at 62 g/ha: 80%
[4]; [15]
  pest or weed control at 125 g/ha: 85%
  pest or weed control at 250 g/ha: 90%
[5]; post-emergence, Postemergence, read-out: Plant response rating (scale of 0 to 100), Velvetleaf
  pest or weed control at 31 g/ha: 10%
[5]; [16]
  pest or weed control at 62 g/ha: 10%
  pest or weed control at 125 g/ha: 60%
[5]; post-emergence, Postemergence, scale 0 to 100, read-out: Plant response rating, Velvetleaf
  pest or weed control at 250 g/ha: 60%
[5]; [17]
  pest or weed control at 31 g/ha: 0%
  pest or weed control at 62 g/ha: 10%
[5]; [18]
  pest or weed control at 125 g/ha: 15%
  pest or weed control at 250 g/ha: 50%
[6]; post-emergence, Postemergence, read-out: Plant response rating (scale of 0 to 100), Soybean
  plant injury at 31 g/ha: 80%
[6]; [19]
  plant injury at 62 g/ha: 90%
  plant injury at 125 g/ha: 90%
[6]; post-emergence, Postemergence, scale 0 to 100, read-out: Plant response rating, Soybean
  plant injury at 250 g/ha: 95%
[6]; [20]
  plant injury at 31 g/ha: 0%
  plant injury at 62 g/ha: 5%
[6]; [21]
  plant injury at 125 g/ha: 5%
  plant injury at 250 g/ha: 70%
[7]; 31 g ai/ha, read-out: Plant response rating (scale of 0 to 100), Ragweed
  pest or weed control at 31 g/ha: 60%
[7]; 62 g ai/ha, scale 0 to 100 (0 no effect, 100 complete control), read-out: Ragweed plant response rating
  pest or weed control at 62 g/ha: 80%
[7]; 125 g ai/ha, scale 0 to 100 (0 no effect, 100 complete control), read-out: Ragweed plant response rating
  pest or weed control at 125 g/ha: 85%
[7]; 250 g ai/ha, scale 0 to 100, read-out: Plant response rating, Ragweed
  pest or weed control at 250 g/ha: 90%
